The subject of experiment [1] is lipoperoxide production in homogenized brain. Nature of the experiment: Lipoperoxide inhibitory activity (natural oxidation of homogenized rat brain, malonodialdehyde by TBA method). Type of experiment: biochemical, Sprague-Dawley rat. The conditions noted are these: for Lipoperoxide inhibition rate: 10^-5 M test compound; for IC50: read-out: Lipoperoxide Inhibitory Activity, 50% inhibitory concentration (IC50). How it is done: 2. Lipoperoxide inhibitory activity
From 10-week, old, male Sprague-Dawely rats which were fed CE-2 diet (Nippon Claire) and water, their brains were taken out by the method of Stocks disclosed in Clinical Science Molecular Medicine, Vol. 78, page 215 (1974), to form lipoperoxide by natural oxidation. The compound (I) in an amount of 10-^3 moles was dissolved in ethanol, and the resultant (10 μl) was added to each homogenized brain. On the other hand, ethanol from which the compound (I) was removed was added to a control group of homogenized brain. A malonodialdehyde was measured by the (TBA) method disclosed in Okawa et al., Analysis Biochemistry, Vol. 95, page 351 (1979). The produced lipoperoxide was calculated based on the measured value of malonodialdehyde.

The target in experiment [2] is T1, Acyl-CoA: cholesterol acyltransferase (ACAT) (Rattus norvegicus, UniProt Q7TQM4).
T1 construct: from the mucosal microsome fraction of the small intestine; from tissue; host or cells: small intestine mucosal microsomes, male 6-week old Sprague-Dawley rats fasted 20 hours
T1 sequence (Q7TQM4 1-524): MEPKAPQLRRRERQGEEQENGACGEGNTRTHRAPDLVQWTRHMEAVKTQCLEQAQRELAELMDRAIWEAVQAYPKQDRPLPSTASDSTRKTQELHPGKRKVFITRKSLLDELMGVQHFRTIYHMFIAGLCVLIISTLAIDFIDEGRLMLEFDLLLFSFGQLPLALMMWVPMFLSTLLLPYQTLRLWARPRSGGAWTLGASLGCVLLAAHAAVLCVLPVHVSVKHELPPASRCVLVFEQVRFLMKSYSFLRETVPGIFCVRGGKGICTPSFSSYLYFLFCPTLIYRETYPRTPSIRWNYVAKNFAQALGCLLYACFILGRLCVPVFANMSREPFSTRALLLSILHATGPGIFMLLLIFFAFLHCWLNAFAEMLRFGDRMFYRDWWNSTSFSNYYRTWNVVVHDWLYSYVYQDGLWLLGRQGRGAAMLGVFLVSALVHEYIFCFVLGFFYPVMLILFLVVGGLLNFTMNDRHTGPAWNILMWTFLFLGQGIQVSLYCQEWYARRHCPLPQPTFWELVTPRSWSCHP
Nature of the experiment: ACAT inhibitory activity (rat small intestine mucosal microsome; labeled cholesterol ester from [1-^14 C] oleoyl-CoA). Format: biochemical, Sprague-Dawley rat. The conditions noted are these: 10^-6 M test compound; read-out: ACAT Inhibition Rate. On the procedure:
1. Acyl-CoA: cholesterol acyltransferase (ACAT) inhibitory activity
The enzyme ACAT was prepared by the method of Heider et al. described in Journal of Lipid Research, Vol. 24, page 1127 (1982), from the mucosal microsome fraction of the small intestine of male, 6-week old Sprague-Dawley rats which had been fasted for 20 hours.
ACAT activity was calculated by the method of Helgerud et. al. described in Journal of Lipid Research, Vol. 22, page 271 (1981), namely, by measuring the amount of the labeled cholesterol ester produced from [1-^14 C] oleoyl-CoA and endogenous cholesterol.
Inhibition rates (%) of the production of the labeled cholesterol ester wherein 10-^6 M of test compounds were added are shown as an index of ACAT inhibitory activity in Table 1.

In general, inhibition refers to the relative decrease from the control value, in per cent. `Cc1cc(C)c2ncc(NC(=O)C=Cc3cc(C)c(O)c(C)c3)c(-c3ccccc3Cl)c2c1` [Example 34, 4-(2-chlorophenyl)-3-(4-hydroxy-3,5-dimethylcinnamoylamino)-6,8-dimethylquinoline]: the Lipoperoxide inhibition rate in experiment [1] stood at 62.1%. Moreover, in experiment [2], the inhibition at 1 µM is 86.4%.
For the compound `COc1ccc(OC)c(C=CC(=O)Nc2cnc3c(C)cc(C)cc3c2-c2ccccc2Cl)c1` [Example 25, 4-(2-chlorophenyl)-3-(2,5-dimethoxycinnamoylamino)-6,8-dimethylquinoline], the inhibition at 1 µM in experiment [2] amounted to 73.7%.
On to `Cc1cc(C)c2ncc(NC(=O)C3(C)Cc4c(C)c(O)c(C)c(C)c4O3)c(-c3ccccc3Cl)c2c1` (stereo not drawn) [Example 14, 4-(2-chlorophenyl)-3-(2,3-dihydro-5-hydroxy-2,4,6,7-tetramethylbenzofuran-2-ylcarbonyl)amino-6,8-dimethylquinoline], for which, in experiment [1], the Lipoperoxide inhibition rate was 98.4% and the IC50 was found to be 370 nM. In addition, the inhibition at 1 µM in experiment [2] is 83.1%.
For `Cc1cc(C)c2ncc(NC(=O)C=Cc3ccc(O)c(O)c3)c(-c3ccccc3Cl)c2c1` [Example 38, 4-(2-chlorophenyl)-3-(3,4-dihydroxycinnamoylamino)-6,8-dimethylquinoline], the inhibition at 1 µM in experiment [2] amounted to 78.2%.
Consider `COc1ccc(-c2c(NC(=O)c3cc(C(C)(C)C)c(O)c(C(C)(C)C)c3)cnc3ccc(Cl)cc23)c(OC)c1OC` [Example 4, 3-(3,5-di-tert-butyl-4-hydroxybenzamido)-6-chloro-4-(2,3,4-trimethoxyphenyl) quinoline], for which, in experiment [2], the inhibition at 1 µM was 84.8%.
In experiment [1], `COc1cc(C=CC(=O)Nc2cnc3c(C)cc(C)cc3c2-c2ccccc2Cl)cc(OC)c1OC(C)=O` [Example 27, 3-(4-acetoxy-3,5-dimethoxylcinnamoylamino)-4-(2-chlorophenyl)-6,8-dimethylquinoline] yielded a Lipoperoxide inhibition rate of 90.2%. Besides, the inhibition at 1 µM in experiment [2] is 83.7%.
As to `CC1=C(C(=O)Nc2cnc3c(C)cc(C)cc3c2-c2ccccc2Cl)Sc2cc(F)ccc2N1` [Example 16, 4-(2-chlorophenyl)-3-(7-fluoro-3-methyl-4H-1,4-benzothiazin-2-ylcarbonyl)amino-6,8-dimethylquinoline], in experiment [1], the Lipoperoxide inhibition rate stood at 100% and the IC50 came to 1200 nM. Also, the inhibition at 1 µM in experiment [2] amounted to 72.6%.
In the case of `COc1ccc(-c2c(NC(=O)c3cc(C(C)(C)C)c(O)c(C(C)(C)C)c3)cnc3ccc(Cl)cc23)cc1OC` [Example 3, 3-(3,5-di-tert-butyl-4-hydroxybenzamido)-6-chloro-4-(3,4-dimethoxyphenyl)quinoline], the inhibition at 1 µM in experiment [2] was found to be 83.4%.
Still for that read-out and setting: then `CC(=O)Oc1c(C(C)C)cc(C(=O)Nc2cnc3c(C)cc(C)cc3c2-c2ccccc2Cl)cc1C(C)C` [Example 6, 3-(4-acetoxy-3,5-diisopropylbenzamido)-4-(2-chlorophenyl)-6,8-dimethylquinoline], with 79.3%; and `Cc1cc(C)c2ncc(NC(=O)Cc3ccc(F)cc3F)c(-c3ccccc3Cl)c2c1` [Example 18, 4-(2-chlorophenyl)-3-(2,4-difluorophenylacetylamino)-6,8-dimethylquinoline], with 94%; and `COC(=O)c1ccc(C=CC(=O)Nc2cnc3c(C)cc(C)cc3c2-c2ccccc2Cl)cc1` [Example 23, 4-(2-chlorophenyl)-3-(4-methoxycarbonylcinnamoylamino)-6,8-dimethylquinoline], with 65.9%.
For `COc1ccc(C=CC(=O)Nc2cnc3cc(C)c(C)cc3c2-c2ccccc2Cl)cc1OC` [Example 22, 4-(2-chlorophenyl)-3-(3,4-dimethoxycinnamoylamino)-6,7-di-methylquinoline], in experiment [2], the inhibition at 1 µM is 92.6%.
For the compound `COc1cc(C=CC(=O)Nc2cnc3c(C)cc(C)cc3c2-c2ccccc2Cl)cc(OC)c1O` [Example 33, 4-(2-chlorophenyl)-3-(4-hydroxy-3,5-dimethoxycinnamonylamino)-6,8-dimethylquinoline], in experiment [1], the Lipoperoxide inhibition rate is 96.1% and the IC50 amounted to 1300 nM. Also, the inhibition at 1 µM in experiment [2] stood at 81.7%.
`Cc1cc(C)c2ncc(NC(=O)c3cc(C)c(O)c(C)c3C)c(-c3ccccc3Cl)c2c1` [Example 11, 4-(2-chlorophenyl)-3-(4-hydroxy-2,3,5-trimethylbenzamido)-6,8-dimethylquinoline]: the inhibition at 1 µM in experiment [2] was determined as 94.3%.
Same read-out and setting: next, `Cc1cc(C)c2ncc(NC(=O)c3cc(C(C)(C)C)c(O)c(C(C)(C)C)c3)c(-c3ccccc3Cl)c2c1` [Example 1, 4-(2-chlorophenyl)-3-(3,5-di-tert-butyl-4-hydroxybenzamido)-6,8-dimethylquinoline]: 82.2%.
As to `Cc1cc(C)c2ncc(NC(=O)C=Cc3cc(C)c(O)c(C)c3C)c(-c3ccccc3Cl)c2c1` [Example 35, 4-(2-chlorophenyl)-3-(4-hydroxy-2,3,-trimethylcinnamoylamino)-6,8-dimethylquinoline], in experiment [1], the Lipoperoxide inhibition rate came to 84.9% and the IC50 was 810 nM. The inhibition at 1 µM in experiment [2] was 81.7%.
In turn, `CC(=O)Oc1c(C)c(C)c2c(c1C)CC(C)(C(=O)Nc1cnc3c(C)cc(C)cc3c1-c1ccccc1Cl)O2` (stereo not drawn) [Example 13, 3-(5-acetoxy-2,3-dihydro-2,4,6,7-tetramethylbenzofuran-2-ylcarbonyl)amino-4-(2-chlorophenyl)-6,8-dimethylquinoline] registered a Lipoperoxide inhibition rate in experiment [1] of 71.6%. The inhibition at 1 µM in experiment [2] was determined as 64.7%.
For the compound `COc1cccc(C=CC(=O)Nc2cnc3c(C)cc(C)cc3c2-c2ccccc2Cl)c1OC` [Example 24, 4-(2-chlorophenyl)-3-(2,3-dimethoxycinnamoylamino)-6,8-di-methylquinoline], the inhibition at 1 µM in experiment [2] worked out at 69.4%.
On to `COc1ccc(C=CC(=O)Nc2cnc3c(C)cc(C)cc3c2-c2ccccc2Cl)c(OC)c1OC` [Example 46, 4-(2-chlorophenyl)-6,8-dimethyl-3-(2,3,4-trimethoxycinnamoylamino) quinoline], for which, in experiment [2], the inhibition at 1 µM worked out at 72.6%.
Regarding `CC1=C(C(=O)Nc2cnc3c(C)cc(C)cc3c2-c2ccccc2Cl)Sc2ccccc2N1` [Example 15, 4-(2-chlorophenyl)-6,8-dimethyl-3-(3-methyl-4H-1,4-benzothiazin-2-ylcarbonyl) aminoquinoline], in experiment [2], the inhibition at 1 µM stood at 76%.
Take `Cc1cc(C)c2ncc(NC(=O)C3(C)CCc4c(C)c(O)c(C)c(C)c4O3)c(-c3ccccc3Cl)c2c1` (stereo not drawn) [Example 12, 4-(2-chlorophenyl)-3-(6-hydroxy-2,5,7,8-tetramethylchroman-2-ylcarbonyl)amino-6,8-dimethylquinoline]: in experiment [1], the Lipoperoxide inhibition rate stood at 98.5%. For the same compound, the inhibition at 1 µM in experiment [2] is 41.2%.
For `CC(=O)Oc1c(C)cc(C(=O)Nc2cnc3c(C)cc(C)cc3c2-c2ccccc2Cl)cc1C` [Example 8, 3-(4-acetoxy-3,5-dimethylbenzamido)-4-(2-chlorophenyl)-6,8-dimethylquinoline], the inhibition at 1 µM in experiment [2] is 62%.
Regarding `Cc1cc(C)c2ncc(NC(=O)C=Cc3cccc(O)c3O)c(-c3ccccc3Cl)c2c1` [Example 32, 4-(2-chlorophenyl)-3-(2,3-dihydroxycinnamoylamino)-6,8-dimethylquinoline], in experiment [1], the Lipoperoxide inhibition rate is on record as 99.7% and the IC50 is 400 nM. The inhibition at 1 µM in experiment [2] came to 66.6%.
As to `O=C(C=Cc1ccc(O)c(O)c1)Nc1cnc2ccc(Cl)cc2c1-c1ccccc1Cl` [Example 43, 6-chloro-4-(2-chlorophenyl)-3-(3,4-dihydroxycinnamoylamino)quinoline], the inhibition at 1 µM in experiment [2] came to 97%.
Still for that read-out and setting: next, `COc1ccc(C=CC(=O)Nc2c(-c3ccccc3Cl)c3cc(C)cc(C)c3n(C)c2=O)cc1OC` [Example 36, 4-(2-chlorophenyl)-3-(3,4-dimethoxycinnamoylamino)-1,6,8-trimethyl-2(1H)-quinolone]: 63%.

(Values after US5523407A, “Quinoline derivatives, their production and use as ACAT inhibitors” (Takeda Chemical Industries, Ltd., priority 1989, dated 1996).)
